From PubChem BioAssay (NCI)
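Protocol summary: plate cells (96-well), add compound at 5 concentrations, incubate 48 h, interpolate endpoints linearly. The concentration for full growth arrest is given as TGI.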

Key:
Test in all cases: NCI anticancer screen, dose series, 48 h
SK-OV-3 ovarian = test system: SK-OV-3 ovarian
LOX IMVI melanoma = test system: LOX IMVI melanoma
SF-539 CNS = test system: SF-539 CNS
CCRF-CEM leukemia = test system: CCRF-CEM leukemia
SK-MEL-2 melanoma = test system: SK-MEL-2 melanoma
UACC-62 melanoma = test system: UACC-62 melanoma
SF-268 CNS = test system: SF-268 CNS
U251 CNS = test system: U251 CNS
DU-145 prostate = test system: DU-145 prostate
SF-295 CNS = test system: SF-295 CNS
MDA-MB-231 breast = test system: MDA-MB-231 breast
TK-10 renal = test system: TK-10 renal
HOP-92 NSCLC = test system: HOP-92 NSCLC
UO-31 renal = test system: UO-31 renal
MOLT-4 leukemia = test system: MOLT-4 leukemia
NCI/ADR-RES ovarian = test system: NCI/ADR-RES ovarian
COLO 205 colon = test system: COLO 205 colon
MCF7 breast = test system: MCF7 breast
HT29 colon = test system: HT29 colon
MDA-MB-435 = test system: MDA-MB-435
HS 578T breast = test system: HS 578T breast
NCI-H226 lung = test system: NCI-H226 lung
CAKI-1 renal = test system: CAKI-1 renal
HCT-15 colon = test system: HCT-15 colon
OVCAR-4 ovarian = test system: OVCAR-4 ovarian
OVCAR-3 ovarian = test system: OVCAR-3 ovarian
RXF 393 renal = test system: RXF 393 renal
HOP-62 NSCLC = test system: HOP-62 NSCLC
HCC-2998 colon = test system: HCC-2998 colon
EKVX NSCLC = test system: EKVX NSCLC
SW-620 colon = test system: SW-620 colon
HL-60(TB) leukemia = test system: HL-60(TB) leukemia
SK-MEL-28 melanoma = test system: SK-MEL-28 melanoma
K-562 leukemia = test system: K-562 leukemia
UACC-257 melanoma = test system: UACC-257 melanoma
NCI-H460 lung = test system: NCI-H460 lung
RPMI-8226 leukemia = test system: RPMI-8226 leukemia
PC-3 prostate = test system: PC-3 prostate
T-47D breast = test system: T-47D breast
OVCAR-8 ovarian = test system: OVCAR-8 ovarian
SNB-75 CNS = test system: SNB-75 CNS
SK-MEL-5 melanoma = test system: SK-MEL-5 melanoma
A549 NSCLC = test system: A549 NSCLC
NCI-H23 lung = test system: NCI-H23 lung
A498 renal = test system: A498 renal
MDA-N = test system: MDA-N
M14 melanoma = test system: M14 melanoma
SR leukemia = test system: SR leukemia
IGROV1 ovarian = test system: IGROV1 ovarian
SNB-19 CNS = test system: SNB-19 CNS
ACHN renal = test system: ACHN renal
KM12 colon = test system: KM12 colon
OVCAR-5 ovarian = test system: OVCAR-5 ovarian

Measured: TGI

Cc1ccc(C(=O)N/N=C(\N=Nc2cccc(C)c2)c2ccc(N(CCC#N)CCC#N)cc2C)cc1
61.4 µM: SK-MEL-28 melanoma
> 100 µM: all other assays above
